Assay results taken from publication PMC4912077 (PLoS ONE, 2016).

Columns and labels:
[1] = molecular target: T1, Sigma 2 (Rattus norvegicus, UniProt Q5U3Y7); test: NIMH PDSP radioligand binding, Sigma 2
T1 sequence (Q5U3Y7 1-176): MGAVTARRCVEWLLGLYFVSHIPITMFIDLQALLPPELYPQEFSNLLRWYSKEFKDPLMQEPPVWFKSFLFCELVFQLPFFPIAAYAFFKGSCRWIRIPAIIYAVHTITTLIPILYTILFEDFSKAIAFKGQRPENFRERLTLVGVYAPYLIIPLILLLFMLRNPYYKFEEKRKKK
Protocol: (§1) Radioligands and concentrations used for additional 45 CNS receptor binding assays are listed as supporting information (S1 Table). This work was performed by the National Institute of Mental Health Psychoactive Drug Screening Program (NIMH PDSP) as described previously.[26] Briefly target compounds were dissolved in DMSO and subjected to a primary screen at 10,000 nM concentration. […] Additional experimental details are available in the NIMH PDSP assay protocol book.

[2] = molecular target: H3 (Homo sapiens, UniProt Q9Y5N1); test: NIMH PDSP radioligand binding, H3
H3, sequence (Q9Y5N1 whole entry): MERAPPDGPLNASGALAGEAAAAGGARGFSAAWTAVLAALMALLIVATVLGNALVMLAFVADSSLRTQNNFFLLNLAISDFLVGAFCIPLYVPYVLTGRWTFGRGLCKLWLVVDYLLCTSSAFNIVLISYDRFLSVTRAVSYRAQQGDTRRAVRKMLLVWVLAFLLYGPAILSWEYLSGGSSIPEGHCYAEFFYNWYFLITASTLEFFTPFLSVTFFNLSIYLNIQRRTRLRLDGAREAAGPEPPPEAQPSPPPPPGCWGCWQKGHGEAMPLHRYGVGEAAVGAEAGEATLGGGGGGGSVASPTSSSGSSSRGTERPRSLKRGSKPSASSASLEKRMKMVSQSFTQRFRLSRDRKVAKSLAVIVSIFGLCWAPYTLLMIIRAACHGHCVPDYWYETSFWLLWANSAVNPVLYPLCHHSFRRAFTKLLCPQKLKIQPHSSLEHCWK
Protocol: as §1

[3] = tested on: Sprague–Dawley rats; test: Acoustic startle response (ASR) magnitude in rats; format: in vivo, rat
Protocol: Male Sprague–Dawley rats from Harlan Industries (Indianapolis, IN, USA; initial weight 250–275 g) were housed in pairs under a 12-h reverse light/dark cycle (lights off at 0700 h). Use of a reversed light/dark cycle allows behavioral testing to be conducted during the awake phase of the light/dark cycle. Food and water were available ad libitum. Animals were acclimatized for approximately 1 wk after arrival prior to behavioral testing and maintained in Association for Assessment and Accreditation of Laboratory Animal Care (AAALAC)-approved facilities that meet all federal and state guidelines. Procedures were approved by the University of California San Diego institutional animal care and use committee. […]
Eight startle chambers (SR-LAB system, San Diego Instruments, San Diego, CA, USA) were used to measure startle reactivity in rats. […] The peak and average amplitudes of the startle response were detected by a piezoelectric accelerometer. At the onset of the startling stimulus, 100 1-ms readings were recorded, and the average amplitude was used to determine the magnitude of the startle response (measured in arbitrary units).
Acoustic startle test sessions consisted of startle trials (pulse-alone) and prepulse trials (prepulse + pulse). […] During each inter-trial interval, the movements of the animals were recorded once to measure response when no stimulus was present (data not shown). […]

[4] = molecular target: M1 (Homo sapiens, UniProt P11229); test: NIMH PDSP radioligand binding, M1
M1, sequence (P11229 whole entry): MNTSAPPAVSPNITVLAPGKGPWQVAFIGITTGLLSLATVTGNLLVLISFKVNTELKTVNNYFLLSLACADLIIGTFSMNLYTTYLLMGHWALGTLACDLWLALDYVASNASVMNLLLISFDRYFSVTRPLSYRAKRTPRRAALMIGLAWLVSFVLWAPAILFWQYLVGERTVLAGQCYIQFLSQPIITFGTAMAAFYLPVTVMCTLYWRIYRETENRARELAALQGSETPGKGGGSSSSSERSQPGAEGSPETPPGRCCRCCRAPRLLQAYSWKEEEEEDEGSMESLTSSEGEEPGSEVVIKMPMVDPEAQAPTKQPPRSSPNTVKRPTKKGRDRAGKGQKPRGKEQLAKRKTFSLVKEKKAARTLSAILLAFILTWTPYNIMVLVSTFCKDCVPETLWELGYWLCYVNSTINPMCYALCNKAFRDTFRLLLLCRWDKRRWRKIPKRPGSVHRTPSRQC

[5] = molecular target: T2, Human SERT (Homo sapiens, UniProt P31645); test: Monoamine reuptake inhibition assay, SERT in HEK293 cells; format: cell-based
T2 construct: expressed in transfected cells; host or cells: HEK293
T2 sequence (P31645 whole entry): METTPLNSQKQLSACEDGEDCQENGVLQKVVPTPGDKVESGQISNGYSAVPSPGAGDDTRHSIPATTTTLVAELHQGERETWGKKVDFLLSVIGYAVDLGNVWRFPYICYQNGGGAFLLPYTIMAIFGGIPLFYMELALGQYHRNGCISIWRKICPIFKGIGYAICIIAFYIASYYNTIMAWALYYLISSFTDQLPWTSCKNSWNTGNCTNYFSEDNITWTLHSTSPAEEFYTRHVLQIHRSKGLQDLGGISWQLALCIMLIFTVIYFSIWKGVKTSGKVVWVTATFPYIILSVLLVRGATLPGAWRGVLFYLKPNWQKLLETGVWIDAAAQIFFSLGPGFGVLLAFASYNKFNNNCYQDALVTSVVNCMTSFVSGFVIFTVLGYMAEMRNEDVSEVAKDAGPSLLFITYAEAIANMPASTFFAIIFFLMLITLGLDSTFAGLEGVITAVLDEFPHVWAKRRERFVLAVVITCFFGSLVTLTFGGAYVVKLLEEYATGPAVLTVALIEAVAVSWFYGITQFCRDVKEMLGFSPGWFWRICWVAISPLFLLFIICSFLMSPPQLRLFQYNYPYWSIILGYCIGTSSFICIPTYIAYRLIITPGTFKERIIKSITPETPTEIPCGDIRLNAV
Protocol: Monoamine reuptake inhibition assays were performed via the NIMH PDSP as previously described.[28] In brief, the neurotransmitter transporter uptake assay kit (R8174) (Molecular Devices) was used. Human monoamine transporters (DAT, NET and SERT) were stably expressed in HEK293 cells. Assay buffer consisted of 20 mM HEPES, 1x HBSS at pH 7.4. Cells were plated in Pol-L-Lys (PLL) coated 384-well black clear bottom cell culture plates with a density of 15,000 cells/well. Cells were incubated for at least 6 h prior to assay. Media was removed and replaced with 20 μL assay buffer and 5 μL of drug or positive control (cocaine or nisoxetine) as a 5X stock. Cells were incubated for 30 min at 37°C. 25 μL of dye solution was then added and following an additional 30 min incubation (at 37°C) fluorescence intensity was measured using a FlexStation II (bottom read mode, excitation wavelength = […], emission = 520 nM with a cutoff of 510 nM). […] Additional details are available in the NIMH PDSP assay protocol book.

[6] = tested on: PCP site within the NMDAR channel;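 further: IC50 by nonlinear regression of percent specific binding versus log concentration, Ki from IC50 via Cheng-Prusoff, raw counts in CPM, duplicates repeated at least three times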
Protocol: The reaction was terminated by vacuum filtration using a 24 well cell harvester (Brandel, Gaithersburg, MD) over presoaked GF/B glass fiber filters (Brandel, Gaithersburg, MD). Filters were washed with room temperature assay buffer (3 x 5 mL). […] IC50 values were determined in Graphpad Prism 5.0 using non-linear regression with log-concentration plotted against percent specific binding. […] Ki values were calculated using the equation of Cheng and Prusoff [24]. […] Protein concentration was determined via the Bradford method using Coomassie protein assay reagent (Sigma, USA) [25] with rat albumin (Sigma, USA) as standard. Experiments were performed in duplicate and repeated a minimum of three times.

[7] = molecular target: KOR (Homo sapiens, UniProt P41145); test: NIMH PDSP radioligand binding, KOR
KOR, sequence (P41145 whole entry): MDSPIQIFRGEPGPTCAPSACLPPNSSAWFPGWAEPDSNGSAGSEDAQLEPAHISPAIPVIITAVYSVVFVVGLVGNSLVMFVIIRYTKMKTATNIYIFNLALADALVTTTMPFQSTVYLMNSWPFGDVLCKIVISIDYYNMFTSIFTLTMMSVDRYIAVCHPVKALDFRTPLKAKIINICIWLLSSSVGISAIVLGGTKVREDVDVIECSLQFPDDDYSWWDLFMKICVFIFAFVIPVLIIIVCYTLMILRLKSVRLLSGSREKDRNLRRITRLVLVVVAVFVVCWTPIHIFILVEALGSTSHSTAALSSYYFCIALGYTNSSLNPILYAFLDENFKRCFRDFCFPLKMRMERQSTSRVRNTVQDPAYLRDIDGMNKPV
Protocol: as §1

[8] = molecular target: DAT (Homo sapiens, UniProt Q01959); test: NIMH PDSP radioligand binding, DAT
DAT, sequence (Q01959 whole entry): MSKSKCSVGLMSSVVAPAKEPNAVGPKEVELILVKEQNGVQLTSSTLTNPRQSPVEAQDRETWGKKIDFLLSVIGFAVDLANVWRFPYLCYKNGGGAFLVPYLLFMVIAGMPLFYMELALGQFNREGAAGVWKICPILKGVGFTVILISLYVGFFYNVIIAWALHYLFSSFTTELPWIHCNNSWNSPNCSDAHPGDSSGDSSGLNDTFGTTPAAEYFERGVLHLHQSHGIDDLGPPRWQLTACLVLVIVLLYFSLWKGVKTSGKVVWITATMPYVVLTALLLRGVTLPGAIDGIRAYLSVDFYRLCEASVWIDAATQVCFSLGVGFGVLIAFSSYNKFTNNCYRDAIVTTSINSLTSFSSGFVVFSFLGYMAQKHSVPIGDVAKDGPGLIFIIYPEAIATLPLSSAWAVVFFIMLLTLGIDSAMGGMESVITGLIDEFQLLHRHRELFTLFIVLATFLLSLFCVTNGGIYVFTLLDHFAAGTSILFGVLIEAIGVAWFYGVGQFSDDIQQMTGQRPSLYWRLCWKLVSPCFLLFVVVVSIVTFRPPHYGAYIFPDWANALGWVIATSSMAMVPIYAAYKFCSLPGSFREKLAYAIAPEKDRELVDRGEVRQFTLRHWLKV
Protocol: as §1

Structure (SMILES) | Ki [1] | Ki [2] | effect on magnitude of the ASR ([3]; 1.25–30 mg/kg s.c., both experiments) | Ki [4] | IC50 [5] | IC50 [6] | Ki [7] | Ki [8] | acoustic startle response (ASR) magnitude ([3]; 20 mg/kg s.c., vehicle 175.9 ± 29.2)
c1ccc(CC(c2ccccc2)N2CCCCC2)cc1 (centres unmarked) [DPH, diphenidine] | 0.193 µM | 1.02 µM | did not alter the magnitude of the ASR | 2.65 µM | > 10 µM | 0.0286 ± 0.0035 µM | 3.9 µM | 0.317 µM | 
COc1ccccc1C(Cc1ccccc1)N1CCCCC1 (centres unmarked) [2-MXP, 2-methoxydiphenidine] | 0.508 µM |  |  |  | > 10 µM | 0.0565 ± 0.0058 µM | 1.69 µM | 2.91 µM | 78.8 ± 11.9 arbitrary units
